Legend:
Carbonic anhydrase 2 = Carbonic anhydrase 2 (Homo sapiens, UniProt P00918); test: Inhibition of human CA2 preincubated for 15 mins by stopped flow CO2 hydration assay
Carbonic anhydrase 1 = Carbonic anhydrase 1 (Homo sapiens, UniProt P00915); test: Inhibition of human CA1 preincubated for 15 mins by stopped flow CO2 hydration assay
Carbonic anhydrase 12 = Carbonic anhydrase 12 (Homo sapiens, UniProt O43570); test: Inhibition of human CA12 preincubated for 15 mins by stopped flow CO2 hydration assay
Sequence of Carbonic anhydrase 12 (O43570 whole entry): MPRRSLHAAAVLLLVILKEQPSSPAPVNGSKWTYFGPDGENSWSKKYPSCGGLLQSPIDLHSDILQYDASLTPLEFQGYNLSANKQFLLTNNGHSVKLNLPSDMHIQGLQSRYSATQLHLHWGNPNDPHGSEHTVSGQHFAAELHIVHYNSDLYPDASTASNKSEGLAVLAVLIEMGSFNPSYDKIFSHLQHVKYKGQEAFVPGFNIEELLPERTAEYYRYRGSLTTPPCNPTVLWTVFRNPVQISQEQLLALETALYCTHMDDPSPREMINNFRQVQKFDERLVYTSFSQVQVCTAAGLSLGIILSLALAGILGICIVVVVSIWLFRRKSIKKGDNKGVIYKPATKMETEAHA

Sequence of Carbonic anhydrase 1 (P00915 whole entry): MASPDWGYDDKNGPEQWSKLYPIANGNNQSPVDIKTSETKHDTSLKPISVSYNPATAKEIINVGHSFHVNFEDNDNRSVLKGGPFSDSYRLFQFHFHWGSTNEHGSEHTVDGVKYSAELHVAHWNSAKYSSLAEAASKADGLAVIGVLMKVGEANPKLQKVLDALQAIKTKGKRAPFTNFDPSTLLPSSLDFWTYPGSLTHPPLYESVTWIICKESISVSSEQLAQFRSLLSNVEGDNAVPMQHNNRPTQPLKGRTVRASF

Ki (Carbonic anhydrase 2): 12.4 nM | Ki (Carbonic anhydrase 1): 212 nM | Ki (Carbonic anhydrase 12): 0.62 nM
Compound: NS(=O)(=O)c1ccc(CCn2c(=S)[nH]c3ccc(F)cc3c2=O)cc1

From ChEMBL document CHEMBL3826922, “Synthesis 4-[2-(2-mercapto-4-oxo-4H-quinazolin-3-yl)-ethyl]-benzenesulfonamides with subnanomolar carbonic anhydrase II and XII inhibitory properties” (Bioorg Med Chem, 2016)
